{
  "source": "paper PMC8333425",
  "about": "“Discovery of a dual Ras and ARF6 inhibitor from a GPCR endocytosis screen” (Nature Communications, 2021)",
  "assay_in_all_cases": "KINOMEscan kinase binding assay",
  "key": {"[1]": {"biological_target": "T1, 384 kinases from the human genome (Homo sapiens, UniProt P51817)", "T1 construct": "purchased Eurofin/DiscoverX", "T1 sequence (P51817 whole entry)": "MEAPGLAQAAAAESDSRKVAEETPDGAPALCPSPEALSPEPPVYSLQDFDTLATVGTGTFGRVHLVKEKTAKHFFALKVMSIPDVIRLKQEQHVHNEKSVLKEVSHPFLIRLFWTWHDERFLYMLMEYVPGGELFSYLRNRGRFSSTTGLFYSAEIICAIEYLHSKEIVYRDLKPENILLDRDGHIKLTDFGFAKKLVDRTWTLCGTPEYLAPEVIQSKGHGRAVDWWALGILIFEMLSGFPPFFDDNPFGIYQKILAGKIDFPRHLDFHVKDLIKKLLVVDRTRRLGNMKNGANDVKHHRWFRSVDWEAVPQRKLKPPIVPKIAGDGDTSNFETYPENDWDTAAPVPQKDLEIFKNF", "details": "kinase PRKX (Entrez PRKX)", "outline": "(§1)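 A panel of 384 human kinases was profiled by KINOMEscan binding in the presence of 10 µM compound. Kinase–ligand binding was given as percent of DMSO control, averaged from duplicates in a single run, with an S(10) selectivity score.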"}, "[2]": {"biological_target": "T2, 384 kinases from the human genome (Homo sapiens, UniProt P42680)", "T2 construct": "purchased Eurofin/DiscoverX", "details": "kinase TEC (Entrez TEC)", "outline": "as §1"}, "[3]": {"biological_target": "T3, 384 kinases from the human genome (Homo sapiens, UniProt Q86V86)", "T3 construct": "purchased Eurofin/DiscoverX", "details": "kinase PIM3 (Entrez PIM3)", "outline": "as §1"}, "[4]": {"biological_target": "T4, 384 kinases from the human genome (Homo sapiens, UniProt O95747)", "T4 construct": "purchased Eurofin/DiscoverX", "T4 sequence (O95747 whole entry)": "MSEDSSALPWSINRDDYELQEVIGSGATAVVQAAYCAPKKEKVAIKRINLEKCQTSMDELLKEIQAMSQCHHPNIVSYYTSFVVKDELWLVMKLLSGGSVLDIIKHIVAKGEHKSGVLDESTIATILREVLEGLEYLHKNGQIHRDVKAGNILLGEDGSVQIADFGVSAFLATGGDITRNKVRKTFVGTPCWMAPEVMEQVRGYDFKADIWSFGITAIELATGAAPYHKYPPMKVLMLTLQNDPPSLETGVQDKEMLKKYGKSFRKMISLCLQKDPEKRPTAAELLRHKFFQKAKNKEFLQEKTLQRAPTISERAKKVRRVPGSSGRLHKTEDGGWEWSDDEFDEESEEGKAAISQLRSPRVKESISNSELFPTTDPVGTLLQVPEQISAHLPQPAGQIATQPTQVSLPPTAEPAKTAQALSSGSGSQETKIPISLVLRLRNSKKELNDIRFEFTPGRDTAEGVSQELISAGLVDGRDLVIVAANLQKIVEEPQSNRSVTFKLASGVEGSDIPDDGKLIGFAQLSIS", "details": "kinase OSR1 (Entrez OXSR1)", "outline": "as §1"}, "[5]": {"biological_target": "T5, 384 kinases from the human genome (Homo sapiens, UniProt P07947)", "T5 construct": "purchased Eurofin/DiscoverX", "T5 sequence (P07947 whole entry)": "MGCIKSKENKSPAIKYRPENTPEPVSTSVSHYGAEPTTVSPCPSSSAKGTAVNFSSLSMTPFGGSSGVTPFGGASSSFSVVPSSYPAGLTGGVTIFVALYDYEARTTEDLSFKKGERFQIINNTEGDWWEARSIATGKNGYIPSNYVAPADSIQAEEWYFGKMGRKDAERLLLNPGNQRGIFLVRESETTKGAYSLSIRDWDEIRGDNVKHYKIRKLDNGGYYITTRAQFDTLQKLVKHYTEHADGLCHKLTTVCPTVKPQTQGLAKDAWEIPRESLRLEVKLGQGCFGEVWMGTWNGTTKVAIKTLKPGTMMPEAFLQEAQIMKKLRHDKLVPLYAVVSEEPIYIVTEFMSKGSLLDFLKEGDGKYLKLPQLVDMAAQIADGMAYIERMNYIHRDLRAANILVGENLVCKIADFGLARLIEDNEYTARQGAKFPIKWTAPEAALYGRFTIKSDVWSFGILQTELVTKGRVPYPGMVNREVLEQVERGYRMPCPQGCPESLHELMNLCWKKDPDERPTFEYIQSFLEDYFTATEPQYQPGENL", "details": "kinase YES (Entrez YES1)", "outline": "as §1"}, "[6]": {"biological_target": "T6, 384 kinases from the human genome (Homo sapiens, UniProt Q5VT25)", "T6 construct": "purchased Eurofin/DiscoverX", "details": "kinase MRCKA (Entrez CDC42BPA)", "outline": "as §1"}, "[7]": {"biological_target": "T7, 384 kinases from the human genome (Homo sapiens, UniProt P49336)", "T7 construct": "purchased Eurofin/DiscoverX", "T7 sequence (P49336 whole entry)": "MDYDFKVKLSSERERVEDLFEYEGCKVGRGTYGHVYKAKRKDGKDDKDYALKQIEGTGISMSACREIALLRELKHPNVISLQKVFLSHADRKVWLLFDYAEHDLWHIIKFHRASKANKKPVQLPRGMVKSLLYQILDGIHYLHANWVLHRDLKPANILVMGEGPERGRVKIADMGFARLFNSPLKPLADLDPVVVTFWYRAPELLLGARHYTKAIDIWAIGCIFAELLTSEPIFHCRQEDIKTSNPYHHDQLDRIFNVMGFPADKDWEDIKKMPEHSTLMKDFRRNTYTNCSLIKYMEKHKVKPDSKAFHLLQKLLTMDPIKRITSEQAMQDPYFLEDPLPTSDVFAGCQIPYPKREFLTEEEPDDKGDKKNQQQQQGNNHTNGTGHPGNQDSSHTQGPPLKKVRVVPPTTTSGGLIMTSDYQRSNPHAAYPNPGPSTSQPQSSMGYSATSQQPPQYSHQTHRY", "details": "kinase CDK8 (Entrez CDK8)", "outline": "as §1"}, "[8]": {"biological_target": "T8, 384 kinases from the human genome (Homo sapiens, UniProt O14965)", "T8 construct": "purchased Eurofin/DiscoverX", "details": "kinase AURKA (Entrez AURKA)", "outline": "as §1"}, "[9]": {"biological_target": "T9, 384 kinases from the human genome (Homo sapiens, UniProt Q07002)", "T9 construct": "purchased Eurofin/DiscoverX", "details": "kinase PCTK3 (Entrez CDK18)", "outline": "as §1"}, "[10]": {"biological_target": "T10, 384 kinases from the human genome (Homo sapiens, UniProt P20794)", "T10 construct": "purchased Eurofin/DiscoverX", "T10 sequence (P20794 whole entry)": "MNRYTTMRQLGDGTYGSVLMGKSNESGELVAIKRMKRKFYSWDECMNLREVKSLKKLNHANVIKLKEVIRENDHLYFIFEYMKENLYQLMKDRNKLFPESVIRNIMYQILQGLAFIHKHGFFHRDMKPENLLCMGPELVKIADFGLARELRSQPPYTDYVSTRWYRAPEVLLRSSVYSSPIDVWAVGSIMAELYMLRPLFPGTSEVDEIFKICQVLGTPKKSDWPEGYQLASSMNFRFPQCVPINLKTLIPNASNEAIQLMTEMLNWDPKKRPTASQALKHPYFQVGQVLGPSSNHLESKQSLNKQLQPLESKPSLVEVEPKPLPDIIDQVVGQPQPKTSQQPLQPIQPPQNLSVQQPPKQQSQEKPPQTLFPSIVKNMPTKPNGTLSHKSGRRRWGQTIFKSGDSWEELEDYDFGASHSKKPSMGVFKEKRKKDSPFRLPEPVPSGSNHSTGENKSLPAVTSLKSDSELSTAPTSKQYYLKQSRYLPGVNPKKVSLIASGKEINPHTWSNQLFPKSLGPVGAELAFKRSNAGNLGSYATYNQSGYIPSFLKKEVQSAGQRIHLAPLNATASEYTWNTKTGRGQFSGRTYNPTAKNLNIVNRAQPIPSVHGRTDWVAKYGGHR", "details": "kinase MAK (Entrez MAK)", "outline": "as §1"}, "[11]": {"biological_target": "T11, 384 kinases from the human genome (Homo sapiens, UniProt Q12851)", "T11 construct": "purchased Eurofin/DiscoverX", "details": "kinase MAP4K2 (Entrez MAP4K2)", "outline": "as §1"}, "[12]": {"biological_target": "T12, 384 kinases from the human genome (Homo sapiens, UniProt P41240)", "T12 construct": "purchased Eurofin/DiscoverX", "details": "kinase CSK (Entrez CSK)", "outline": "as §1"}, "[13]": {"biological_target": "T13, 384 kinases from the human genome (Homo sapiens, UniProt Q96BR1)", "T13 construct": "purchased Eurofin/DiscoverX", "T13 sequence (Q96BR1 whole entry)": "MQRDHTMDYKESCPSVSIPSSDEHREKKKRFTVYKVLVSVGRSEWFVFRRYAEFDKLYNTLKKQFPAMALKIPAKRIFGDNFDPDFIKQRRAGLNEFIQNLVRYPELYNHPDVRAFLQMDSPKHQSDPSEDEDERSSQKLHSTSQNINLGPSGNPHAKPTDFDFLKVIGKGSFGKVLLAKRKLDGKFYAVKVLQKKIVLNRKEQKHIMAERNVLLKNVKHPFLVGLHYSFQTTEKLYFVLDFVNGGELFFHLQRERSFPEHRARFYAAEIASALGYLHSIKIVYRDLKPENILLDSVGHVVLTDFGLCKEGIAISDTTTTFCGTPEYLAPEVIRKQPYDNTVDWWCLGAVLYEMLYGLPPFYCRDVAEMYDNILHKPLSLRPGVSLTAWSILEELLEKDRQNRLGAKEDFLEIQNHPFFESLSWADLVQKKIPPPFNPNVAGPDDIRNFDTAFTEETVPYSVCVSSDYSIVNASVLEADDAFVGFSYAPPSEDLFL", "details": "kinase SGK3 (Entrez SGK3)", "outline": "as §1"}, "[14]": {"biological_target": "T14, 384 kinases from the human genome (Homo sapiens, UniProt P51955)", "T14 construct": "purchased Eurofin/DiscoverX", "T14 sequence (P51955 whole entry)": "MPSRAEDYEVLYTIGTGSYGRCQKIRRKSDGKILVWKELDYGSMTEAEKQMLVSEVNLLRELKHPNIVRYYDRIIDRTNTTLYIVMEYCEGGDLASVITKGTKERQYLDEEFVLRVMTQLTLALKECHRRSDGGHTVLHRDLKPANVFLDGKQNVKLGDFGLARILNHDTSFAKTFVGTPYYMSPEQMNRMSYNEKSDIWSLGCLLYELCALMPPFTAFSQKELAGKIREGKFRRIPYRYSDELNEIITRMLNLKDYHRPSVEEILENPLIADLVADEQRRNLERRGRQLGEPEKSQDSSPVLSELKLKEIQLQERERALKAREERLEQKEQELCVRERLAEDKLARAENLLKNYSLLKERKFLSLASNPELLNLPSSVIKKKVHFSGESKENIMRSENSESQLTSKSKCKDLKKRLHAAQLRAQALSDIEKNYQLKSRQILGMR", "details": "kinase NEK2 (Entrez NEK2)", "outline": "as §1"}, "[15]": {"biological_target": "T15, 384 kinases from the human genome (Homo sapiens, UniProt P15735)", "T15 construct": "purchased Eurofin/DiscoverX", "details": "kinase PHKG2 (Entrez PHKG2)", "outline": "as §1"}, "[16]": {"biological_target": "T16, 384 kinases from the human genome (Homo sapiens, UniProt P22694)", "T16 construct": "purchased Eurofin/DiscoverX", "details": "kinase PKAC-beta (Entrez PRKACB)", "outline": "as §1"}, "[17]": {"biological_target": "T17, 384 kinases from the human genome (Homo sapiens, UniProt O43293)", "T17 construct": "purchased Eurofin/DiscoverX", "details": "kinase DAPK3 (Entrez DAPK3)", "outline": "as §1"}, "[18]": {"biological_target": "T18, 384 kinases from the human genome (Homo sapiens, UniProt Q9UF33)", "T18 construct": "purchased Eurofin/DiscoverX", "details": "kinase EPHA6 (Entrez EPHA6)", "outline": "as §1"}, "[19]": {"biological_target": "T19, 384 kinases from the human genome (Homo sapiens, UniProt P16234)", "T19 construct": "purchased Eurofin/DiscoverX", "T19 sequence (P16234 24-1089)": "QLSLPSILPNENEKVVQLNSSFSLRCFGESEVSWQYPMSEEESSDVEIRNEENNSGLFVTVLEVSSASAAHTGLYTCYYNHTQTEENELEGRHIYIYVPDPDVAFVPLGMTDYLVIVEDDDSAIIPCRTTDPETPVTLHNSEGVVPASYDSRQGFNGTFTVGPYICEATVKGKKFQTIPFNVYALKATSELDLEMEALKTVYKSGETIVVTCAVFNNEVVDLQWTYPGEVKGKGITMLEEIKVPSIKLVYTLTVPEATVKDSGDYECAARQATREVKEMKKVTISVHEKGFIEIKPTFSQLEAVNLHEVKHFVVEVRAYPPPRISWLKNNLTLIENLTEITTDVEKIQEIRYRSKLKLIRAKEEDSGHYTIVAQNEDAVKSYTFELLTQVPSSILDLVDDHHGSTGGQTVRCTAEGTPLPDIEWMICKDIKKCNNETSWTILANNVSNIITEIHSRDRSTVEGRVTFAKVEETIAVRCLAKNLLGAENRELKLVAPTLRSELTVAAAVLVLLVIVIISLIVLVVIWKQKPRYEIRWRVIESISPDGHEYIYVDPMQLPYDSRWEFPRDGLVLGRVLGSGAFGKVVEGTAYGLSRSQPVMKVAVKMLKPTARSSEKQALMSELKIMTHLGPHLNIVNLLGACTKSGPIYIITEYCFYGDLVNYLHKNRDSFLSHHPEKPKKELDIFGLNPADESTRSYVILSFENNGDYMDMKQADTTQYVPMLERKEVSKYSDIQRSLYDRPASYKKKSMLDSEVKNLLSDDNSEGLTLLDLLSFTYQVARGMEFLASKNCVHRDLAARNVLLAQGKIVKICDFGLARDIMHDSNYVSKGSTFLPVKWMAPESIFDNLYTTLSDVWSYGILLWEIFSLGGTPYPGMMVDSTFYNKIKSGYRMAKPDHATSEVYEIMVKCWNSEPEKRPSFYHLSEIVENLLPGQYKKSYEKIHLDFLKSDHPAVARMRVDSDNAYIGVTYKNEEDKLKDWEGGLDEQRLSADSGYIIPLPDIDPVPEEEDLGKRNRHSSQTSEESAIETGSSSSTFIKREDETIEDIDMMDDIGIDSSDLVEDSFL", "details": "kinase PDGFRA (Entrez PDGFRA)", "outline": "as §1"}, "[20]": {"biological_target": "T20, 384 kinases from the human genome (Homo sapiens, UniProt Q9BX84)", "T20 construct": "purchased Eurofin/DiscoverX", "details": "kinase TRPM6 (Entrez TRPM6)", "outline": "as §1"}, "[21]": {"biological_target": "T21, 384 kinases from the human genome (Homo sapiens, UniProt Q08345)", "T21 construct": "purchased Eurofin/DiscoverX", "details": "kinase DDR1 (Entrez DDR1)", "outline": "as §1"}, "[22]": {"biological_target": "T22, 384 kinases from the human genome (Homo sapiens, UniProt Q9BVS4)", "T22 construct": "purchased Eurofin/DiscoverX", "details": "kinase RIOK2 (Entrez RIOK2)", "outline": "as §1"}, "[23]": {"biological_target": "T23, 384 kinases from the human genome (Homo sapiens, UniProt O00329)", "T23 construct": "purchased Eurofin/DiscoverX", "details": "kinase PIK3CD (Entrez PIK3CD)", "outline": "as §1"}, "[24]": {"biological_target": "T24, 384 kinases from the human genome (Homo sapiens, UniProt Q00536)", "T24 construct": "purchased Eurofin/DiscoverX", "T24 sequence (Q00536 whole entry)": "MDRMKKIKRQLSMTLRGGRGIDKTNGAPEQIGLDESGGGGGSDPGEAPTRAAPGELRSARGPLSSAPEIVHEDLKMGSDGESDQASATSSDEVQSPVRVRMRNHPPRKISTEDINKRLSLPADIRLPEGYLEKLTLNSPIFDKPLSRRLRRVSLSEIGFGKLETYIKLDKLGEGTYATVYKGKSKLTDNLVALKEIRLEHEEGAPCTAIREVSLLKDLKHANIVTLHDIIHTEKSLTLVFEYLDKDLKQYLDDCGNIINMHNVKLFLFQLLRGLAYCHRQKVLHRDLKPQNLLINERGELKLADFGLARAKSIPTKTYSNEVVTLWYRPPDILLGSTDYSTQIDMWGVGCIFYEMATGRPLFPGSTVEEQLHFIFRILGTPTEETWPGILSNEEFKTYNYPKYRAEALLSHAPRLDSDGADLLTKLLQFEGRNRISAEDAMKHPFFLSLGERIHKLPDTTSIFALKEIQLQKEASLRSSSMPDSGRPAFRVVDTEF", "details": "kinase PCTK1 (Entrez CDK16)", "outline": "as §1"}, "[25]": {"biological_target": "T25, 384 kinases from the human genome (Homo sapiens, UniProt Q5S007)", "T25 construct": "purchased Eurofin/DiscoverX", "details": "kinase LRRK2 (Entrez LRRK2)", "outline": "as §1"}, "[26]": {"biological_target": "T26, 384 kinases from the human genome (Homo sapiens, UniProt P52564)", "T26 construct": "purchased Eurofin/DiscoverX", "details": "kinase MEK6 (Entrez MAP2K6)", "outline": "as §1"}, "[27]": {"biological_target": "T27, 384 kinases from the human genome (Homo sapiens, UniProt P08922)", "T27 construct": "purchased Eurofin/DiscoverX", "details": "kinase ROS1 (Entrez ROS1)", "outline": "as §1"}},
  "data": [
    {"compound": "CC(C)C(=O)N1CCN(c2ccc(NC(=O)c3cc4ccccc4o3)cc2Cl)CC1", "note": "[Compound 21]", "values": [
      {"measurement": "Percent Control", "setting": "[1]", "result": 100, "unit": "%"},
      {"measurement": "Percent Control", "setting": "[2]", "result": 98, "unit": "%"},
      {"measurement": "Percent Control", "setting": "[3]", "result": 90, "unit": "%"},
      {"measurement": "Percent Control", "setting": "[4]", "result": 95, "unit": "%"},
      {"measurement": "Percent Control", "setting": "[5]", "result": 89, "unit": "%"},
      {"measurement": "Percent Control", "setting": "[6]", "result": 68, "unit": "%"},
      {"measurement": "Percent Control", "setting": "[7]", "result": 100, "unit": "%"},
      {"measurement": "Percent Control", "setting": "[8]", "result": 89, "unit": "%"},
      {"measurement": "Percent Control", "setting": "[9]", "result": 96, "unit": "%"},
      {"measurement": "Percent Control", "setting": "[10]", "result": 84, "unit": "%"},
      {"measurement": "Percent Control", "setting": "[11]", "result": 100, "unit": "%"},
      {"measurement": "Percent Control", "setting": "[12]", "result": 97, "unit": "%"},
      {"measurement": "Percent Control", "setting": "[13]", "result": 91, "unit": "%"},
      {"measurement": "Percent Control", "setting": "[14]", "result": 91, "unit": "%"},
      {"measurement": "Percent Control", "setting": "[15]", "result": 100, "unit": "%"},
      {"measurement": "Percent Control", "setting": "[16]", "result": 93, "unit": "%"},
      {"measurement": "Percent Control", "setting": "[17]", "result": 100, "unit": "%"},
      {"measurement": "Percent Control", "setting": "[18]", "result": 75, "unit": "%"},
      {"measurement": "Percent Control", "setting": "[19]", "result": 72, "unit": "%"},
      {"measurement": "Percent Control", "setting": "[20]", "result": 81, "unit": "%"},
      {"measurement": "Percent Control", "setting": "[21]", "result": 90, "unit": "%"},
      {"measurement": "Percent Control", "setting": "[22]", "result": 100, "unit": "%"},
      {"measurement": "Percent Control", "setting": "[23]", "result": 100, "unit": "%"},
      {"measurement": "Percent Control", "setting": "[24]", "result": 96, "unit": "%"},
      {"measurement": "Percent Control", "setting": "[25]", "result": 89, "unit": "%"},
      {"measurement": "Percent Control", "setting": "[26]", "result": 97, "unit": "%"},
      {"measurement": "Percent Control", "setting": "[27]", "result": 94, "unit": "%"}
    ]}
  ]
}
